Target: T1, Human thrombin (Homo sapiens, UniProt P00734)
T1 construct: purchased Haematologic Technologies Inc
Test: Inhibition of the protease activity of thrombin (chromogenic substrate S-2238)
Type: biochemical
Conditions: inhibition of the protease activity of thrombin; class symbols a/b/c
Protocol: Compounds described herein can be assayed, by a variety of methods known in the art and described herein, for inhibition of biological activity, e.g., protease activity, of a variety of proteins, e.g., thrombin.
The thrombin activity reported herein (e.g., Table A) was obtained as follows. Human thrombin was obtained from Haematologic Technologies Inc. The chromogenic
Thrombin was assayed in buffer containing 0.05 M Tris (pH 7.4), 0.015 M NaCl and 0.01% PEG-8000. The final concentration of enzyme used was 3 nM thrombin. […] All assays were performed in 96-well microtiter plates at room temperature (RT). […] Inhibitor IC50 values were determined by adding test compound as ten point, three-fold serial dilutions in buffer solution, as known in the art. The plate was read at 10 minutes after substrate addition. The IC50 was calculated by plotting the percent (%) inhibition against compound concentration and fitting the data to a constrained four parameter sigmoidal curve, as known in the art.

First: CCC(=O)n1nc(-c2cccs2)nc1NCc1ccc(F)cc1 [Cmpd 83, 1-(5-[(4-fluorophenyl)methyl]amino-3-(thiophen-2-yl)-1H-1,2,4-triazol-1-yl)propan-1-one]
Second: CCC(=O)n1nc(-c2ccccn2)nc1NCc1ccc(OC)cc1 [Cmpd 93, 1-(5-[(4-methoxyphenyl)methyl]amino-3-(pyridin-2-yl)-1H-1,2,4-triazol-1-yl)propan-1-one]
The IC50 of the first is higher: 100 to 1000 nM for the first, < 100 nM for the second.

`CCC(=O)n1nc(-c2ccccc2)cc1NCc1ccc(F)cc1` [Cmpd 84, 1-(5-[(4-fluorophenyl)methyl]amino-3-phenyl-1H-pyrazol-1-yl)propan-1-one] and `CCC(=O)n1nc(-c2ccccc2)c(C)c1NCc1ccc(F)cc1` [Cmpd 85, 1-(5-[(4-fluorophenyl)methyl]amino-4-methyl-3-phenyl-1H-pyrazol-1-yl)propan-1-one] cannot be ordered by IC50: > 1000 nM for the first, > 1000 nM for the second.

`CCC(=O)n1nc(-c2cccnc2)nc1SCc1ccc(F)cc1` [Cmpd 86, 1-(5-[(4-fluorophenyl)methyl]sulfanyl-3-(pyridin-3-yl)-1H-1,2,4-triazol-1-yl)propan-1-one] and `COc1ccc(CNc2nc(-c3cccnc3)nn2C(=O)C(C)(C)C)cc1` [Cmpd 94, 1-(5-[(4-methoxyphenyl)methyl]amino-3-(pyridin-3-yl)-1H-1,2,4-triazol-1-yl)-2,2-dimethylpropan-1-one] cannot be ordered by IC50: < 100 nM for the first, < 100 nM for the second.

`COc1ccc(CNc2nc(-c3ccccn3)nn2C(=O)C(C)C)cc1` [Cmpd 88, 1-(5-[(4-methoxyphenyl)methyl]amino-3-(pyridin-2-yl)-1H-1,2,4-triazol-1-yl)-2-methylpropan-1-one] and `COc1ccc(CNc2nc(-c3ccccn3)nn2C(=O)CC(C)C)cc1` [Cmpd 90, 1-(5-[(4-methoxyphenyl)methyl]amino-3-(pyridin-2-yl)-1H-1,2,4-triazol-1-yl)-3-methylbutan-1-one] cannot be ordered by IC50: < 100 nM for the first, < 100 nM for the second.

First: COc1ccc(CNc2nc(-c3ccccn3)nn2C(=O)Cc2ccccc2)cc1 [Cmpd 89, 1-(5-[(4-methoxyphenyl)methyl]amino-3-(pyridin-2-yl)-1H-1,2,4-triazol-1-yl)-2-phenylethan-1-one]
Second: COc1ccc(CNc2nc(-c3ccccn3)nn2C(=O)CCc2ccccc2)cc1 [Cmpd 91, 1-(5-[(4-methoxyphenyl)methyl]amino-3-(pyridin-2-yl)-1H-1,2,4-triazol-1-yl)-3-phenylpropan-1-one]
The IC50 of the first is lower: < 100 nM for the first, 100 to 1000 nM for the second. The first is the more potent here.

`CCCC(=O)n1nc(-c2ccccn2)nc1NCc1ccc(OC)cc1` [Cmpd 92, 1-(5-[(4-methoxyphenyl)methyl]amino-3-(pyridin-2-yl)-1H-1,2,4-triazol-1-yl)butan-1-one] and `CCCC(=O)n1nc(-c2ccncc2)nc1NCc1ccc(OC)cc1` [Cmpd 99, 1-(5-[(4-methoxyphenyl)methyl]amino-3-(pyridin-4-yl)-1H-1,2,4-triazol-1-yl)butan-1-one] cannot be ordered by IC50: < 100 nM for the first, < 100 nM for the second.

`COc1ccc(CNc2nc(-c3ccncc3)nn2C(=O)C(C)C)cc1` [Cmpd 95, 1-(5-[(4-methoxyphenyl)methyl]amino-3-(pyridin-4-yl)-1H-1,2,4-triazol-1-yl)-2-methylpropan-1-one] and `COc1ccc(CNc2nc(-c3ccncc3)nn2C(=O)CC(C)C)cc1` [Cmpd 97, 1-(5-[(4-methoxyphenyl)methyl]amino-3-(pyridin-4-yl)-1H-1,2,4-triazol-1-yl)-3-methylbutan-1-one] cannot be ordered by IC50: < 100 nM for the first, < 100 nM for the second.

Going from `COc1ccc(CNc2nc(-c3ccncc3)nn2C(=O)Cc2ccccc2)cc1` [Cmpd 96, 1-(5-[(4-methoxyphenyl)methyl]amino-3-(pyridin-4-yl)-1H-1,2,4-triazol-1-yl)-2-phenylethan-1-one] to `COc1ccc(CNc2nc(-c3ccncc3)nn2C(=O)CCc2ccccc2)cc1` [Cmpd 98, 1-(5-[(4-methoxyphenyl)methyl]amino-3-(pyridin-4-yl)-1H-1,2,4-triazol-1-yl)-3-phenylpropan-1-one], the IC50 rises from < 100 nM to > 1000 nM. The first is the more potent here.

`CCC(=O)n1nc(-c2ccncc2)nc1NCc1ccc(OC)cc1` [Cmpd 100, 1-(5-[(4-methoxyphenyl)methyl]amino-3-(pyridin-4-yl)-1H-1,2,4-triazol-1-yl)propan-1-one] showed an IC50 of 100 to 1000 nM.
